Measured values as given in patent publication US10065957B2, “Beta-lactamase inhibitors” (Novartis AG, priority 2016, dated 2018).
Structures can show the parent of a compound that is named as a salt. Where two headings read alike, the source gives them in different places.

Assays:
Type in all cases: cell-based
E. coli (AmpC) = experiment: microbe, parasite or virus in culture; settings: for MIC: Escherichia coli
Experimental: (§1) MICs were determined by the broth microdilution method in accordance with Clinical and Laboratories Institute (CLSI) guidelines. In brief, fresh overnight bacterial cultures were suspended in sterile saline, and adjusted to a 0.5 McFarland turbidity standard. Bacterial suspensions were then diluted in cation adjusted Mueller-Hinton Broth (MHB II; BBL) to yield a final inoculum of approximately 5×10^5 colony-forming units (CFU)/mL. A master plate of antibiotics was prepared at a concentration equivalent to hundred-fold the highest desired final concentration in 100% dimethyl sulfoxide (DMSO). The master antibiotic plate was then diluted by serial twofold dilution with a multichannel pipette. The resulting dilution series of compounds were diluted 1:10 with sterile water or a solution of beta-lactamase inhibitor prepared at a concentration equivalent to eleven-fold the desired final concentration in deionized water leading to a 10% DMSO final concentration. A volume of 10 μL of the drug dilution series was transferred to 96-well assay plates. Assay plates were inoculated with 90 μL of bacterial suspensions and incubated at 35° C. for 20 hrs. The assay plates were read using a microtiter plate reader (Molecular Devices) at 600 nm as well as by visual observation with a reading mirror. The lowest concentration of the compound that prevented visible growth was recorded as the MIC. Performance of the assay was monitored by testing aztreonam against laboratory quality control strains in accordance with guidelines of the CLSI.
(§2) Synergy or potentiation of beta-lactam antibiotics through inhibition of Q-lactamases was assessed against an isogenic panel of E. coli strains, each expressing a unique beta-lactamase, and against clinical strains.
The gene encoding AmpC was PCR amplified from the genome of strain P. aeruginosa PAO1 (NB52019) (GenBank ID U5R279) using primer pair E252 (gccCTCGAGggcgaggccccggcggatcgc) (SEQ ID NO: 17) and E253 (tgaGAATTCtcagcgcttcagcggcacct) (SEQ ID NO: 18).
The PCR products were then digested with XhoI and EcoRI and ligated into similarly digested plasmid pAH63-pstS(BlaP). Plasmid pAH63-pstS(BlaP) is a derivative of plasmid pAH63 (J Bacteriol: 183(21): 6384-6393) made by cloning the TEM-1 (bla) promoter and signal peptide encoding region from plasmid pBAD (J Bacteriol. 1995 July 177(14):4121-30) into plasmid pAH63. This fragment was PCR amplified from pBAD using primer pair E192 (ttcaCTGCAGtgaacgttgcgaagcaacggC) (SEQ ID NO:19) and E194 (TCGAggatcctcgagagcaaaaacaggaaggcaaaatgccg) (SEQ ID NO:20), digested with PstI and BamHI and inserted into similarly digested plasmid pAH63. Therefore, expression of beta-lactamases from pAH63-pstS(BlaP) based constructs is constitutive and the signal sequence is provided to direct these proteins to the periplasm. Plasmid pAH63 based vectors are used for insertion into the genome in single copy, however, to provide higher expression levels to allow more sensitive detection of the susceptibility of compounds to the expressed beta-lactamases, the expression inserts contained in these vectors were moved to the replicative multicopy vector pBAD-Kan (J Bacteriol. 1995 July 177(14):4121-30). To accomplish this, the inserts encompassing the beta-lactamase genes, with the associated TEM promoter and signal sequences, were PCR amplified from their corresponding vectors using primer E268 (ccgTCTAGAcggatggcctttttgcgtttc) (SEQ ID NO:21) and E202 (aatcGAATTCttactgaccattaacgcccaagc) (SEQ ID NO:22) for the KPC2 construct, E204 (aatcGAATTCttaacgctgccagtgctcaatc) (SEQ ID NO:23) for the SHV-12 construct and E203 (aatcGAATTCttacagaccgtcggtgacaatc) (SEQ ID NO:24) for the CTX-M-15 construct. These fragments were then digested with XbaI and EcoRI, and each was inserted into pBAD18-kan that had been digested with the same enzymes to generate multicopy vectors expressing KPC-2, SHV-12 and CTX-M-15, respectively. […]

[1] = tested on: K. pneumoniae NB29323 (CTX-M-15, OXA-48, VEB-1); settings: aztreonam alone
Experimental: as §1, §2

E. coli (CTX-M-15) = experiment: microbe, parasite or virus in culture
Experimental: as §1, with “MIC.” for “MIC. Performance of the assay was monitored by testing aztreonam against laboratory quality control strains in accordance with guidelines of the CLSI.”
as §2
(§3) Strain NB27273 (BW25113 pspB::Km^r) was obtained from the Keio transposon insertion collection. The strain has the pspB gene replaced by a kanamycin resistance marker (BW25113 pspB::Km^r). This strain was cured of the transposon in pspB via FLP recombinase using published methodology. The resulting strain, BW25113 pspB, was used as a host for multicopy vectors expressing key beta-lactamases. Multicopy plasmids directing constitutive expression of beta-lactamases were established as follows: Synthetic, codon optimized genes encoding E. coli KPC-2, SHV-12 and CTX-M-15 beta-lactamases were made by DNA2.0 (Palo Alto, Calif.). Each of the synthetic fragments were designed to contain NotI and NcoI restriction sites at their termini, allowing ligation into a NotI/NcoI digested pET28a(+) derivative for protein expression. […] The codon optimized nucleotide sequences and relevant primer recognition information is shown below:
(§4) The PCR products were then digested with XhoI and EcoRI and ligated into similarly digested plasmid pAH63-pstS(BlaP). […] Therefore, expression of beta-lactamases from pAH63-pstS(BlaP) based constructs is constitutive and the signal sequence is provided to direct these proteins to the periplasm. […] These fragments were then digested with XbaI and EcoRI, and each was inserted into pBAD18-kan that had been digested with the same enzymes to generate multicopy vectors expressing KPC-2, SHV-12 and CTX-M-15, respectively. These vectors were transformed into BW25113 pspB to generate strains NB27273-CDY0033 (expressing KPC-2), NB27273-CDY0030 (expressing SHV-12), NB27273-CDY0034 (expressing CTX-M-15) and NB27273-CDY0036 (expressing AmpC). The pBAD18-kan vector also contains the TEM promoter region and signal sequence, (but lacks any intact beta-lactamase genes) and was transformed into BW25113 pspB using standard protocols to generate the control strain NB27273-CDY0026.

E. coli (KPC-2) = experiment: microbe, parasite or virus in culture; settings: E. coli (KPC-2)
Experimental: as §1, with “MIC.” for “MIC. Performance of the assay was monitored by testing aztreonam against laboratory quality control strains in accordance with guidelines of the CLSI.”
as §2, §3, §4

E. coli (SHV-12) = experiment: microbe, parasite or virus in culture
Experimental: as §1, with “MIC.” for “MIC. Performance of the assay was monitored by testing aztreonam against laboratory quality control strains in accordance with guidelines of the CLSI.”
as §2, §3, §4

E. coli (TEM-10) = experiment: microbe, parasite or virus in culture
Experimental: as §1, with “MIC.” for “MIC. Performance of the assay was monitored by testing aztreonam against laboratory quality control strains in accordance with guidelines of the CLSI.”
as §2
(§5) Construction of E. coli isogenic strains, NB27273-CDY0105 (OXA-18) and NB27273-CDY0048 (TEM-10). […] The gene encoding OXA-18 was then digested with XhoI and EcoRI and inserted into this vector, from which the gene for GIM-1 had been removed with XhoI and EcoRI.
From this template DNA, three fragments were generated by PCR using the following primer pairs;
This fragment was then digested with XbaI and EcoRI and inserted into pBAD-kan which was also cut with the same enzymes.
(§6) These final vectors for expression of OXA-18 and TEM-10 were transformed into BW25113 pspB to generate strains NB27273-CDY0105 (expressing OXA-18) and NB27273-CDY0048 (expressing TEM-10).

E. coli (OXA-18) = experiment: microbe, parasite or virus in culture; settings: for MIC of piperacillin with beta-lactamase inhibitor: Pip + BLI at 2 μg/mL
Experimental: as §1, with “MIC.” for “MIC. Performance of the assay was monitored by testing aztreonam against laboratory quality control strains in accordance with guidelines of the CLSI.”
as §2, §5, §6

E. coli ATCC 25922 = experiment: MIC by broth microdilution, BLI alone; settings: Escherichia coli, ATCC25922, read-out: Minimal Inhibitory Concentrations (MIC) of selected BLIs
Experimental: as §1

K. pneumoniae ATCC 43816 = experiment: MIC by broth microdilution, BLI alone; settings: Klebsiella pneumoniae, ATCC43816, read-out: Minimal Inhibitory Concentrations (MIC) of selected BLIs
Experimental: as §1

P. aeruginosa ATCC 27853 = experiment: MIC by broth microdilution, BLI alone; settings: Pseudomonas aeruginosa, ATCC27853, read-out: Minimal Inhibitory Concentrations (MIC) of selected BLIs
Experimental: as §1

[2] = Escherichia coli, Mero alone, read-out: MIC of meropenem

## C[C@H]1[C@H](NC(=O)/C(=N\OC(C)(C)C(=O)O)c2csc(N)n2)C(=O)N1S(=O)(=O)O [Aztreonam]
E. coli (AmpC); read-out: MIC of aztreonam, AZ alone
  MIC: 4 µg/mL
[1]
  Activity of aztreonam: >64 µg/mL

## Nc1nc(/C(=N/OC2(C(=O)O)CC2)C(=O)N[C@@H]2C(=O)N(S(=O)(=O)O)[C@@H]2CN2CCOC2=O)cs1 [Beta-Lactam 5]
E. coli (CTX-M-15); Beta-Lactam 5 alone
  Activity of Beta-Lactam 5: 0.125 µg/mL
E. coli (KPC-2); Beta-Lactam 5 alone
  Activity of Beta-Lactam 5: 0.25 µg/mL
E. coli (SHV-12); Beta-Lactam 5 alone
  Activity of Beta-Lactam 5: 0.5 µg/mL
E. coli (TEM-10); Beta-Lactam 5 alone
  Activity of Beta-Lactam 5: 2 µg/mL
E. coli (AmpC); Beta-Lactam 5 alone
  Activity of Beta-Lactam 5: 0.25 µg/mL
E. coli (OXA-18); Beta-Lactam 5 alone
  Activity of Beta-Lactam 5: 0.5 µg/mL

## CN1C[C@@H]2C[C@@H]3CN(C(=O)N3OS(=O)(=O)[O-])[C@@H]2C1=O.[Na+] [Example 2, Sodium (4R,5aS,8aS)-7-methyl-2,8-dioxohexahydro-2H-1,4-methanopyrrolo[3,4-d][1,3]diazepin-3(4H)-yl sulfate]
E. coli ATCC 25922
  MIC: > 64 µg/mL
K. pneumoniae ATCC 43816
  MIC: > 64 µg/mL
P. aeruginosa ATCC 27853
  MIC: > 64 µg/mL
E. coli (OXA-18)
  MIC of piperacillin with beta-lactamase inhibitor: 4 µg/mL

## O=C1[C@@H]2[C@@H](C[C@@H]3CN2C(=O)N3OS(=O)(=O)[O-])CN1C1CC1.[Na+] [Example 3, Sodium (4R,5aS,8aS)-7-cyclopropyl-2,8-dioxohexahydro-2H-1,4-methanopyrrolo[3,4-d][1,3]diazepin-3(4H)-yl sulfate]
E. coli ATCC 25922
  MIC: > 64 µg/mL
K. pneumoniae ATCC 43816
  MIC: > 64 µg/mL
P. aeruginosa ATCC 27853
  MIC: > 64 µg/mL
E. coli (OXA-18)
  MIC of piperacillin with beta-lactamase inhibitor: 4 µg/mL

## O=C1[C@@H]2[C@@H](C[C@@H]3CN2C(=O)N3OS(=O)(=O)[O-])CN1CCO.[Na+] [Example 4, Sodium (4R,5aS,8aS)-7-(2-hydroxyethyl)-2,8-dioxohexahydro-2H-1,4-methanopyrrolo[3,4-d][1,3]diazepin-3(4H)-yl sulfate]
E. coli ATCC 25922
  MIC: > 64 µg/mL
K. pneumoniae ATCC 43816
  MIC: > 64 µg/mL
P. aeruginosa ATCC 27853
  MIC: > 64 µg/mL

## NCCN1C[C@@H]2C[C@@H]3CN(C(=O)N3OS(=O)(=O)O)[C@@H]2C1=O [Example 5, (4R,5aS,8aS)-7-(2-aminoethyl)-2,8-dioxohexahydro-2H-1,4-methanopyrrolo[3,4-d][1,3]diazepin-3(4H)-yl hydrogen sulfate]
E. coli ATCC 25922
  MIC: > 64 µg/mL
K. pneumoniae ATCC 43816
  MIC: > 64 µg/mL
P. aeruginosa ATCC 27853
  MIC: > 64 µg/mL

## CCCN1C[C@@H]2C[C@@H]3CN(C(=O)N3OS(=O)(=O)[O-])[C@@H]2C1=O.[Na+] [Example 6, Sodium (4R,5aS,8aS)-2,8-dioxo-7-propylhexahydro-2H-1,4-methanopyrrolo[3,4-d][1,3]diazepin-3(4H)-yl sulfate]
E. coli ATCC 25922
  MIC: > 64 µg/mL
K. pneumoniae ATCC 43816
  MIC: > 64 µg/mL
P. aeruginosa ATCC 27853
  MIC: > 64 µg/mL

## O=C1NCC[C@@H]2C[C@@H]3CN(C(=O)N3OS(=O)(=O)[O-])[C@H]12.[Na+] [Example 7, Sodium (4R,5aR,9aS)-2,9-dioxooctahydro-1,4-methanopyrido[3,4-d][1,3]diazepin-3(2H)-yl hydrogen sulfate]
E. coli ATCC 25922
  MIC: > 64 µg/mL
K. pneumoniae ATCC 43816
  MIC: > 64 µg/mL
P. aeruginosa ATCC 27853
  MIC: > 64 µg/mL
E. coli (OXA-18)
  MIC of piperacillin with beta-lactamase inhibitor: 8 µg/mL

## COC[C@@H]1NC(=O)[C@@H]2[C@H]1C[C@@H]1CN2C(=O)N1OS(=O)(=O)[O-].[Na+] [Example 8, Sodium (4R,5aS,6R,8aS)-6-(methoxymethyl)-2,8-dioxohexahydro-2H-1,4-methanopyrrolo[3,4-d][1,3]diazepin-3(4H)-yl hydrogen sulfate]
E. coli ATCC 25922
  MIC: > 64 µg/mL
K. pneumoniae ATCC 43816
  MIC: > 64 µg/mL
P. aeruginosa ATCC 27853
  MIC: > 64 µg/mL

## C[C@@H](O)[C@H]1C(=O)N2C(C(=O)O)=C(S[C@@H]3CN[C@H](C(=O)N(C)C)C3)[C@H](C)[C@H]12 [Meropenem]
E. coli (CTX-M-15); [2]
  MIC: ≤ 0.06 µg/mL
E. coli (KPC-2); [2]
  MIC: 1 µg/mL
E. coli (SHV-12); [2]
  MIC: ≤ 0.06 µg/mL
E. coli (TEM-10); [2]
  MIC: ≤ 0.06 µg/mL
E. coli (AmpC); Mero alone, read-out: MIC of meropenem
  MIC: ≤ 0.06 µg/mL
E. coli (OXA-18); [2]
  MIC: ≤ 0.06 µg/mL

## Ceftazidime
E. coli (CTX-M-15); ceftazidime alone
  MIC of ceftazidime: 16 µg/mL
E. coli (SHV-12); ceftazidime alone
  MIC of ceftazidime: >64 µg/mL
E. coli (TEM-10); ceftazidime alone
  MIC of ceftazidime: >64 µg/mL
E. coli (AmpC); ceftazidime alone
  MIC of ceftazidime: 4 µg/mL
E. coli (OXA-18); ceftazidime alone
  MIC of ceftazidime: >64 µg/mL
